The molecules below were run on Cavia porcellus (assay: Anti-cardiac arrhythmia activity in anaesthetised guinea pig assessed as cumulative dose inducing prolongation of monophasic action potential duration by 10% from baseline administered as first dose infusion in 0.2 mL/kg into jugular vein catheter for 30 secs followed by next dosing after 5 mins for 6 to 10 consecutive times by electrophysiology based assay).
Type: functional
For `CN(CCN1CC2CN(CCc3ccc(F)c(F)c3)CC(C1)O2)S(=O)(=O)c1ccc(C#N)cc1`, the D10 was >5.5 mg/kg. In the case of `N#Cc1ccc(OCCN2CC3CN(CCNS(=O)(=O)c4ccc5c(c4)CCO5)CC(C2)O3)c(F)c1`, the D10 is reported as >5.5 mg/kg. `O=S(=O)(NCCN1CC2CN(CCc3cccc(F)c3)CC(C1)O2)c1ccc(F)cc1` was tested, and the D10 was >5.5 mg/kg. `N#Cc1ccc(S(=O)(=O)NCCN2CC3CN(CCc4ccccc4)CC(C2)O3)cc1` was tested, and the D10 was >5.5 mg/kg. With `N#Cc1ccc(OCCN2CC3CN(CCNS(=O)(=O)c4ccc(F)cc4F)CC(C2)O3)cc1` the D10 was >5.5 mg/kg. `CN(CCN1CC2CN(Cc3ccc(C#N)cc3)CC(C1)O2)S(=O)(=O)c1ccc(C#N)cc1` was tested, and the D10 was >5.5 mg/kg. With `CN(CCN1CC2CN(Cc3ccccc3)CC(C1)O2)S(=O)(=O)c1ccc(C#N)cc1` the D10 was >5.5 mg/kg. In the case of `N#Cc1ccc(S(=O)(=O)NCCCN2CC3CN(CCc4ccc(F)cc4)CC(C2)O3)cc1`, the D10 is reported as >5.5 mg/kg. With `CN(CCN1CC2CN(Cc3ccc(C#N)cc3F)CC(C1)O2)S(=O)(=O)c1ccc(C#N)cc1` the D10 was >5.5 mg/kg. For `CN(CCN1CC2CN(Cc3ccc(F)cc3)CC(C1)O2)S(=O)(=O)c1ccc(C#N)cc1`, the D10 was >5.5 mg/kg. For `O=S(=O)(NCCN1CC2CN(CCc3ccccc3F)CC(C1)O2)c1ccc(F)cc1`, the D10 was >5.5 mg/kg. For `N#Cc1ccc(S(=O)(=O)NCCCN2CC3CN(CCc4c(F)cccc4F)CC(C2)O3)cc1`, the D10 was >5.5 mg/kg. `N#Cc1ccc(S(=O)(=O)NCCN2CC3CN(CCc4ccc(Cl)cc4)CC(C2)O3)cc1` was tested, and the D10 was >5.5 mg/kg. For `CN(CCN1CC2CN(CCOc3ccc(C#N)cc3)CC(C1)O2)S(=O)(=O)c1ccc2c(c1)CCO2`, the D10 was >5.5 mg/kg. For `N#Cc1ccc(S(=O)(=O)NCCCN2CC3CN(CCc4ccccc4F)CC(C2)O3)cc1`, the D10 was >5.5 mg/kg. For `N#Cc1ccc(S(=O)(=O)NCCCN2CC3CN(CCc4cccc(F)c4)CC(C2)O3)cc1`, the D10 was >5.5 mg/kg. With `CN(CCN1CC2CN(CCOc3ccc(C#N)cc3F)CC(C1)O2)S(=O)(=O)c1ccc2c(c1)CCO2` the D10 was >5.5 mg/kg. In the case of `N#Cc1ccc(S(=O)(=O)NCCN2CC3CN(CCCOc4ccc(F)cc4F)CC(C2)O3)cc1`, the D10 is reported as >5.5 mg/kg. In the case of `Cc1noc(C)c1CN1CC2CN(CCS(=O)(=O)NCc3ccc(C#N)cc3)CC(C1)O2`, the D10 is reported as >5.5 mg/kg. With `N#Cc1ccc(S(=O)(=O)NCCN2CC3CN(CCc4ccc(C(F)(F)F)cc4)CC(C2)O3)cc1` the D10 was >5.5 mg/kg. With `N#Cc1ccc(S(=O)(=O)NCCN2CC3CN(CCc4ccc(F)cc4F)CC(C2)O3)cc1` the D10 was >5.5 mg/kg. For `O=S(=O)(NCCN1CC2CN(Cc3ccc(F)cc3)CC(C1)O2)c1ccc(F)cc1`, the D10 was >5.5 mg/kg. `O=S(=O)(NCCN1CC2CN(CCc3ccc(F)cc3)CC(C1)O2)c1ccc(F)cc1` was tested, and the D10 was >5.5 mg/kg. For `N#Cc1ccc(S(=O)(=O)NCCCN2CC3CN(CCCOc4ccc(F)cc4)CC(C2)O3)cc1`, the D10 was >5.5 mg/kg. In the case of `N#Cc1ccc(CCN2CC3CN(CCNS(=O)(=O)c4ccc(F)cc4)CC(C2)O3)cc1`, the D10 is reported as >5.5 mg/kg. In the case of `N#Cc1ccc(OCCN2CC3CN(CCNS(=O)(=O)c4cccc(F)c4)CC(C2)O3)c(F)c1`, the D10 is reported as >5.5 mg/kg. In the case of `Cc1noc(C)c1S(=O)(=O)NCCN1CC2CN(CCOc3ccc(C#N)cc3F)CC(C1)O2`, the D10 is reported as >5.5 mg/kg. With `N#Cc1ccc(OCCN2CC3CN(CCNS(=O)(=O)c4ccc(F)cc4)CC(C2)O3)c(F)c1` the D10 was >5.5 mg/kg. For `CN(CCN1CC2CN(CCc3ccc(Cl)cc3)CC(C1)O2)S(=O)(=O)c1ccc(C#N)cc1`, the D10 was >5.5 mg/kg. With `O=S(=O)(NCCN1CC2CN(CCc3ccccc3)CC(C1)O2)c1ccc(F)cc1` the D10 was >5.5 mg/kg. `N#Cc1ccc(OCCN2CC3CN(CCCNS(=O)(=O)c4ccccc4)CC(C2)O3)c(F)c1` was tested, and the D10 was >5.5 mg/kg. For `CN(CCN1CC2CN(CCc3ccccc3F)CC(C1)O2)S(=O)(=O)c1ccc(C#N)cc1`, the D10 was >5.5 mg/kg. For `CN(CCN1CC2CN(CCc3ccc(F)cc3F)CC(C1)O2)S(=O)(=O)c1ccc(C#N)cc1`, the D10 was >5.5 mg/kg. In the case of `N#Cc1ccc(S(=O)(=O)NCCN2CC3CN(Cc4noc5ccccc45)CC(C2)O3)cc1`, the D10 is reported as >5.5 mg/kg. `N#Cc1ccc(OCCN2CC3CN(CCNS(=O)(=O)Cc4ccccc4)CC(C2)O3)c(F)c1` was tested, and the D10 was >5.5 mg/kg. With `N#Cc1ccc(S(=O)(=O)NCCCN2CC3CN(CCOc4c(F)cccc4F)CC(C2)O3)cc1` the D10 was >5.5 mg/kg. `N#Cc1ccc(S(=O)(=O)NCCN2CC3CN(CCc4c(F)cccc4F)CC(C2)O3)cc1` was tested, and the D10 was >5.5 mg/kg. `CN(CCN1CC2CN(CCCOc3ccc(F)cc3F)CC(C1)O2)S(=O)(=O)c1ccc(C#N)cc1` was tested, and the D10 was >5.5 mg/kg. With `N#Cc1ccc(S(=O)(=O)NCCCN2CC3CN(Cc4ccc(F)cc4)CC(C2)O3)cc1` the D10 was >5.5 mg/kg. For `N#Cc1ccc(S(=O)(=O)NCCN2CC3CN(CCc4ccccc4F)CC(C2)O3)cc1`, the D10 was >5.5 mg/kg. `CN(CCN1CC2CN(CCCOc3ccc(F)cc3)CC(C1)O2)S(=O)(=O)c1ccc(C#N)cc1` was tested, and the D10 was >5.5 mg/kg. For `N#Cc1ccc(CN2CC3CN(CCNS(=O)(=O)c4ccc(F)cc4)CC(C2)O3)cc1`, the D10 was >5.5 mg/kg. For `CN(CCN1CC2CN(CCc3ccccc3)CC(C1)O2)S(=O)(=O)c1ccc(C#N)cc1`, the D10 was >5.5 mg/kg. `N#Cc1ccc(S(=O)(=O)NCCCN2CC3CN(Cc4ccccc4)CC(C2)O3)cc1` was tested, and the D10 was >5.5 mg/kg. With `N#Cc1ccc(S(=O)(=O)NCCN2CC3CN(Cc4ccc(C#N)cc4F)CC(C2)O3)cc1` the D10 was >5.5 mg/kg. For `CN(CCN1CC2CN(CCc3cccc(F)c3)CC(C1)O2)S(=O)(=O)c1ccc(C#N)cc1`, the D10 was >5.5 mg/kg. `N#Cc1ccc(CN2CC3CN(CCCNS(=O)(=O)c4ccc(C#N)cc4)CC(C2)O3)cc1` was tested, and the D10 was >5.5 mg/kg. With `N#Cc1ccc(CNS(=O)(=O)CCN2CC3CN(CCc4ccc(F)cc4)CC(C2)O3)cc1` the D10 was >5.5 mg/kg. `N#Cc1cccc(S(=O)(=O)NCCN2CC3CN(CCOc4ccc(C#N)cc4F)CC(C2)O3)c1` was tested, and the D10 was >5.5 mg/kg. In the case of `CN(CCCN1CC2CN(CCOc3ccc(C#N)cc3F)CC(C1)O2)S(=O)(=O)c1ccccc1`, the D10 is reported as >5.5 mg/kg. In the case of `N#Cc1ccc(OCCN2CC3CN(CCNS(=O)(=O)c4ccccc4)CC(C2)O3)c(F)c1`, the D10 is reported as >5.5 mg/kg. `CN(CCN1CC2CN(CCOc3c(F)cccc3F)CC(C1)O2)S(=O)(=O)c1ccc(C#N)cc1` was tested, and the D10 was >5.5 mg/kg. `N#Cc1ccc(S(=O)(=O)NCCCN2CC3CN(CCc4ccc(F)c(F)c4)CC(C2)O3)cc1` was tested, and the D10 was >5.5 mg/kg. For `CN(CCN1CC2CN(CCc3ccc(F)cc3)CC(C1)O2)S(=O)(=O)c1ccc(C#N)cc1`, the D10 was >5.5 mg/kg.

From ChEMBL document CHEMBL3880410, “Novel oxabispidine compounds and their use in the treatment of cardiac arrhythmias” (2009)
